This is an account of results in PMC9101642 (Molecules, 2022).

Where two headings read alike, the source gives them in different places. Marks after values point to notes of the source that are not given here.

Data set [1] deals with T1, ERα (Homo sapiens, UniProt P03372).
T1 sequence (P03372 1-595): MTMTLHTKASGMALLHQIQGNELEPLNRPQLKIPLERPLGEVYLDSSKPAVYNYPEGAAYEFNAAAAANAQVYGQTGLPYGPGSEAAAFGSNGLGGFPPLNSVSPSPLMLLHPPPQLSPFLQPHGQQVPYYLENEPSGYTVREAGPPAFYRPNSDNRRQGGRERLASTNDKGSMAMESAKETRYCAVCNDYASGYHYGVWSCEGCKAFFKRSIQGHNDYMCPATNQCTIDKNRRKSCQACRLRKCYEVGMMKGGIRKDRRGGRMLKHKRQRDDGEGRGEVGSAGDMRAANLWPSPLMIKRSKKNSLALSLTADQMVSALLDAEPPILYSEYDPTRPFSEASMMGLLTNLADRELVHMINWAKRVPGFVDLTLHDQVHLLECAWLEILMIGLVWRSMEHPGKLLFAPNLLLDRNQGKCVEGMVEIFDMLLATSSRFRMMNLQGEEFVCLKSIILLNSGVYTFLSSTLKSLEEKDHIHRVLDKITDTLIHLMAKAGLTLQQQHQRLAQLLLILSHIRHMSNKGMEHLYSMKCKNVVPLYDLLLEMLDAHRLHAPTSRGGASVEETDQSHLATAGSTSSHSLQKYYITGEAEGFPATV
The data set is described as follows: Fluorescence polarization competition assay: antagonistic potency and relative binding affinity. The conditions noted are these: for Ki: calculated antagonistic (inhibitory) constant, read-out: Ka ERα; for IC50: concentration that antagonizes 50% of ERα signaling activity, read-out: ERα (IC50 nM); for logRBA ERα: log of % relative binding affinity, estradiol = 100%; for ERα potency, fold higher than Ral: ratio of IC50 values.

Data set [2] concerns the target ERβ (Homo sapiens, UniProt Q92731). Described as above. The conditions noted are these: for Ki: calculated antagonistic (inhibitory) constant, read-out: Ka ERβ; for IC50: concentration that antagonizes 50% of ERβ signaling activity, read-out: ERβ (IC50 nM); for logRBA ERβ: log of % relative binding affinity, estradiol = 100%.
Data set [3] concerns MCF-7 cell lines. As to the kind of experiment: MTT antiproliferative assay. It counts as cell-based, human. The conditions noted are these: for IC50: Homo sapiens, read-out: MCF-7 (IC50 nM); for MCF-7 antiproliferative potency, fold higher than Ral / MCF-7 antiproliferative potency, fold lower than 3DPQ-12: ratio of IC50 values; for SI: selectivity index [IC50(MDA-MB-231)]/[IC50(MCF-7)].

Data set [4] concerns MDA-MB-231 cell lines. As to the kind of experiment: MTT antiproliferative assay. It counts as cell-based, human. Particulars: Homo sapiens, read-out: MDA-MB-231 (IC50 nM).
Data set [5] concerns Ishikawa endometrial adenocarcinoma cells. The data set is described as follows: Antiproliferative assay. It counts as cell-based. Particulars: Homo sapiens, growth inhibition.
In data set [6] the target is T1, ERα. The data set is described as follows: ERα down-regulation immunofluorescence assay in MCF-7. It counts as cell-based. Particulars: ERα downregulation measured in MCF-7; read-out: MCF-7 DR (IC50 nM).
For data set [7] the following is noted: rat, in vivo.
A short description of data set [8]: Lipophilicity by shake-flask method. The conditions noted are these: pH 7.4.
[9] abbreviates: MDA-MB-231, growth inhibition, 48 h.

ERβ, sequence (Q92731 whole entry): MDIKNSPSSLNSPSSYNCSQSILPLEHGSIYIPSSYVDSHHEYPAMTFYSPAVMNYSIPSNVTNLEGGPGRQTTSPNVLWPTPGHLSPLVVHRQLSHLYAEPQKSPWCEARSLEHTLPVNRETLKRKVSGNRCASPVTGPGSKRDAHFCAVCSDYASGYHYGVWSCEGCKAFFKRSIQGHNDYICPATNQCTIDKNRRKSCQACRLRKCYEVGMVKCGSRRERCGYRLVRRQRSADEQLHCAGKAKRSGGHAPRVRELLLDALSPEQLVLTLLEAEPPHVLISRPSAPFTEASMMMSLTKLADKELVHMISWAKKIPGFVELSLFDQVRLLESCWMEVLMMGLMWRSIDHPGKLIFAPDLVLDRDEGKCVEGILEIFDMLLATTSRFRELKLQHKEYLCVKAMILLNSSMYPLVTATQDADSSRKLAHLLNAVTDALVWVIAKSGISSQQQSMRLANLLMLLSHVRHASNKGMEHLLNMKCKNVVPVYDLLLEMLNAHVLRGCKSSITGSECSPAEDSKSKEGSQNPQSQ

With `CNCCOc1ccc(C(=O)O[C@@H]2/C=C/C(=O)O[C@@H](O)CCC/C=C/[C@@H]3C[C@H](O)C[C@H]32)cc1C(C)=O` [Compound 3DPQ-1, (1R,2E,6R,10E,11aS,13S,14aR)-6,13-dihydroxy-4-oxo-4,6,7,8,9,11a,12,13,14,14a-decahydro-1H-cyclopenta[f][1]oxacyclotridecin-1-yl 3-acetyl-4-(2-(methylamino)ethoxy)benzoate], in data set [1], the Ki is 0.13 nM; the IC50 came to 0.57 ± 0.54 nM; the “logRBA ERα” value is given as 2.19 ^‡,§; the “ERα potency, fold higher than Ral” value is reported as 1.30 fold. In data set [2], the Ki was 41.8 nM, the concentration for half-maximal inhibition (IC50) turned out to be 74.33 ± 0.46 nM and the “logRBA ERβ” value was 0.08 ^†,‡,§. Besides, the IC50 in data set [3] (MCF7, growth inhibition, 48 h) came to 0.76 ± 0.24 nM. In addition, in data set [3], the “MCF-7 antiproliferative potency, fold higher than Ral” value was determined as 1.17 fold and the SI was 95.31 ^‡,§. Further, in data set [4] (setting [9]), the IC50 was found to be 72.44 ± 0.32 nM. The IC50 in data set [5] is 0.94 ± 0.36 nM. Moreover, the half-maximal inhibitory concentration (IC50) in data set [6] is greater than 100 nM. In addition, the “WL after MFD (day 1, mg)” value in data set [7] is on record as 310.34 ± 0.34 ^i mg. For the same compound, the logD at 30 min in data set [8] came out at 1.94.
`CC(=O)c1cc(C(=O)O[C@@H]2/C=C/C(=O)O[C@@H](O)CCC/C=C/[C@@H]3C[C@H](O)C[C@H]32)ccc1OCCN(C)C` [Compound 3DPQ-2, (1R,2E,6R,10E,11aS,13S,14aR)-6,13-dihydroxy-4-oxo-4,6,7,8,9,11a,12,13,14,14a-decahydro-1H-cyclopenta[f][1]oxacyclotridecin-1-yl 3-acetyl-4-(2-(dimethylamino)ethoxy)benzoate]: the Ki in data set [1] is 0.12 nM; in data set [2], 43.4 nM. Besides, the IC50 in data set [1] was 0.54 ± 0.31 nM; in data set [2], 77.24 ± 0.42 nM; in data set [3] (MCF7, growth inhibition, 48 h) it was 0.73 ± 0.42 nM; in data set [4] (setting [9]), 72.42 ± 0.47 nM; in data set [5] it was 0.99 ± 0.35 nM; in data set [6], greater than 100 nM. The “logRBA ERα” value in data set [1] was 2.22 ^†,‡,§. Besides, the “ERα potency, fold higher than Ral” value in data set [1] came out at 1.37 fold. Further, the “logRBA ERβ” value in data set [2] is on record as 0.06 ^†,‡,§. For the same compound, the “MCF-7 antiproliferative potency, fold higher than Ral” value in data set [3] came out at 1.21 fold. In data set [3], the SI is 99.20 ^‡,§. Further, in data set [7], the “WL after MFD (day 1, mg)” value turned out to be 305.03 ± 0.66 mg. In addition, in data set [8], the logD at 30 min was 1.99.
Turning to `CC(=O)c1cc(C(=O)OC2/C=C/C(=O)O[C@@H](O)CCC/C=C/[C@@H]3C[C@H](O)C[C@@H]23)ccc1OCCN1CCC=C(C(=O)O)C1` (stereo partly drawn) [Compound 3DPQ-3, 1-(2-(2-acetyl-4-((((2E,6R,10E,11aS,13S,14aR)-6,13-dihydroxy-4-oxo-4,6,7,8,9,11a,12,13,14,14a-decahydro-1H-cyclopenta[f][1]oxacyclotridecin-1-yl)oxy)carbonyl)phenoxy)ethyl)-1,2,5,6-tetrahydropyridine-3-carboxylic acid], in data set [1], the Ki is 0.1 nM; the IC50 turned out to be 0.44 ± 0.31 nM; the “logRBA ERα” value is given as 2.31 ^†,‡,§; the “ERα potency, fold higher than Ral” value is 1.68 fold. Also, in data set [2], the Ki was 42.1 nM, the half-maximal inhibitory concentration (IC50) was determined as 74.86 ± 0.14 nM and the “logRBA ERβ” value is reported as 0.08 ^†,‡,§. Besides, the half-inhibitory concentration (IC50) in data set [3] (MCF7, 48 h) came to 0.61 ± 0.56 nM. Further, in data set [3], the “MCF-7 antiproliferative potency, fold higher than Ral” value is 1.43 fold and the “MCF-7 antiproliferative potency, fold lower than 3DPQ-12” value is on record as 1.11 fold. Besides, in data set [4] (MDA-MB-231, 48 h), the IC50 worked out at 86.63 ± 0.68 nM. Further, the IC50 in data set [5] was 0.84 ± 0.74 nM. In addition, the concentration for half-maximal inhibition (IC50) in data set [6] was greater than 100 nM. The “WL after MFD (day 1, mg)” value in data set [7] was 320,45 ± 0.62 mg. Besides, in data set [8], the log distribution coefficient (logD) at 30 min was found to be 2.07.
`CC(=O)c1cc(C(=O)O[C@@H]2/C=C/C(=O)O[C@@H](O)CCC/C=C/[C@@H]3C[C@H](O)C[C@H]32)ccc1OCCN1CC(C(=O)O)=CCC1=O` [Compound 3DPQ-9, 1-(2-(2-acetyl-4-((((1R,2E,6R,10E,11aS,13S,14aR)-6,13-dihydroxy-4-oxo-4,6,7,8,9,11a,12,13,14,14a-decahydro-1H-cyclopenta[f][1]oxacyclotridecin-1-yl)oxy)carbonyl)phenoxy)ethyl)-6-oxo-1,2,5,6-tetrahydropyridine-3-carboxylic acid]: in data set [1], the Ki was 0.1 nM; the concentration for half-maximal inhibition (IC50) is 0.45 ± 0.14 nM; the “logRBA ERα” value is on record as 2.30 ^†,‡,§; the “ERα potency, fold higher than Ral” value worked out at 1.64 fold. Further, in data set [2], the Ki was 46.9 nM, the IC50 was 83.56 ± 0.46 nM and the “logRBA ERβ” value is 0.03 ^†,‡,§. The 50% inhibitory concentration (IC50) in data set [3] (MCF7, growth inhibition, 48 h) was 0.62 ± 0.15 nM. Also, in data set [3], the “MCF-7 antiproliferative potency, fold higher than Ral” value was determined as 1.46 fold and the “MCF-7 antiproliferative potency, fold lower than 3DPQ-12” value came out at 1.09 fold. Moreover, the IC50 in data set [4] (setting [9]) amounted to 81.63 ± 0.42 nM. For the same compound, the IC50 in data set [5] amounted to 0.89 ± 0.24 nM. The IC50 in data set [6] was greater than 100 nM. Moreover, in data set [7], the “WL after MFD (day 1, mg)” value was 315.54 ± 0.65 mg. The compound further yielded a logD at 30 min in data set [8] (n-octanol/phosphate buffer) of 2.02.
For `CC(=O)c1cc(C(=O)O[C@@H]2/C=C/C(=O)O[C@@H](O)CCC/C=C/[C@@H]3C[C@H](O)C[C@H]32)ccc1OCCN1CCCC(O)C1=O` (stereo partly drawn) [Compound 3DPQ-12, (1R,2E,6R,10E,11aS,13S,14aR)-6,13-dihydroxy-4-oxo-4,6,7,8,9,11a,12,13,14,14a-decahydro-1H-cyclopenta[f][1]oxacyclotridecin-1-yl 3-acetyl-4-(2-(3-hydroxy-2-oxopiperidin-1-yl)ethoxy)benzoate], the Ki in data set [1] was 0.09 nM; in data set [2], 50.3 nM. For the same compound, the half-inhibitory concentration (IC50) in data set [1] was 0.4 ± 0.43 nM; in data set [2], 89.45 ± 0.31 nM; in data set [3] (MCF7, growth inhibition, 48 h) it was 0.56 ± 0.11 nM; in data set [4] (setting [9]) it was 82.84 ± 0.61 nM; in data set [5] it was 0.77 ± 0.43 nM; in data set [6], greater than 100 nM. In data set [1], the “logRBA ERα” value is 2.35 ^†,‡,§. For the same compound, in data set [1], the “ERα potency, fold higher than Ral” value stood at 1.85 fold. In data set [2], the “logRBA ERβ” value is reported as 0.00 ^†,‡,§. For the same compound, the “WL after MFD (day 1, mg)” value in data set [7] was 305.06 ± 0.94 mg. Further, the logD at 30 min in data set [8] stood at 2.06.
